Experimental data reported in patent US4753953A, “Pyridonecarboxylic acid derivatives and antibacterial pharmaceutical compositions thereof” (priority 1985, dated 1988).
Like-named read-outs stand apart in the source and are kept apart here.

How the values were obtained:
[1] = test system: Staphylococcus aureus 209 P; experiment: MIC, in vitro antibacterial activity (standard strains); assay type: cell-based; conditions: Staphylococcus aureus, 209P; 10^6 cells/ml; Gram +; read-out: MIC
[2] = test system: B. fragilis 25285; experiment: as above; assay type: cell-based, Bacteroides fragilis; conditions: Bacteroides fragilis, 25285; 10^6 cells/ml; Gram -; read-out: MIC
[3] = test system: B. fragilis 0558; experiment: as above; assay type: cell-based, Bacteroides fragilis; conditions: Bacteroides fragilis, 0558; 10^6 cells/ml; Gram -; read-out: MIC
[4] = test system: C. perfringens KYA 13123; experiment: microbe, parasite or virus in culture; assay type: cell-based; conditions: Clostridium perfringens, KYA13123
[5] = test system: Fusobacterium mortiferum 4249; experiment: MIC, in vitro antibacterial activity (standard strains); assay type: cell-based; conditions: Fusobacterium mortiferum, 4249; 10^6 cells/ml; Gram -; read-out: MIC
[6] = test system: B. thetaiotaomicron (0661); experiment: as above; assay type: cell-based; conditions: Bacteroides thetaiotaomicron; 10^6 cells/ml; Gram -; read-out: MIC
[7] = test system: P. cepacia GIFU 518; experiment: as above; assay type: cell-based; conditions: Burkholderia cepacia, GIFU518
[8] = test system: P. mirabilis IID 994; experiment: as above; assay type: cell-based; conditions: Proteus mirabilis, IID994; 10^6 cells/ml; Gram -; read-out: MIC
[9] = test system: Enterobacter cloacae IID 977; experiment: as above; assay type: cell-based; conditions: Enterobacter cloacae, IID977; 10^6 cells/ml; Gram -; read-out: MIC
[10] = test system: Alcaligenes faecalis 0114002; experiment: as above; assay type: cell-based; conditions: Alcaligenes faecalis, 0114002; 10^6 cells/ml; Gram -; read-out: MIC
[11] = test system: Shigella sonnei IID 969; experiment: as above; assay type: cell-based; conditions: Shigella sonnei, IID969; 10^6 cells/ml; Gram -; read-out: MIC
Protocol: Minimal inhibitory concentrations (MICs) were determined in accordance with the method recommended by Japan Society of Chemotherapy.

[12] = test system: Proteus vulgaris IFO 3167; experiment: as above; assay type: cell-based; conditions: Proteus vulgaris, IFO3167; 10^6 cells/ml; Gram -; read-out: MIC
[13] = test system: Yersinia enterocolitica IID 981; experiment: as above; assay type: cell-based; conditions: Yersinia enterocolitica, IID981; 10^6 cells/ml; Gram -; read-out: MIC
[14] = test system: S. epidermidis IID 866; experiment: as above; assay type: cell-based; conditions: Staphylococcus epidermidis, IID866; 10^6 cells/ml; Gram +; read-out: MIC
[15] = test system: C. ramosum; experiment: as above; assay type: cell-based; conditions: Thomasclavelia ramosa; 10^6 cells/ml; Gram +; read-out: MIC
[16] = test system: E. faecalis IID 682; experiment: as above; assay type: cell-based; conditions: Enterococcus faecalis, IID682; 10^6 cells/ml; Gram +; read-out: MIC
[17] = test system: Bacteroides fragilis GM 7000; experiment: as above; assay type: cell-based; conditions: Bacteroides fragilis, GM7000; 10^6 cells/ml; Gram -; read-out: MIC
[18] = test system: Eubacterium lentum GAI 5242; experiment: as above; assay type: cell-based; conditions: Eggerthella lenta, GAI5242; 10^6 cells/ml; Gram +; read-out: MIC
[19] = test system: Citrobacter freundii IID 976; experiment: as above; assay type: cell-based; conditions: Citrobacter freundii, IID976; 10^6 cells/ml; Gram -; read-out: MIC
[20] = test system: E. coli ATCC 10536; experiment: as above; assay type: cell-based, Escherichia coli; conditions: Escherichia coli, ATCC10536; 10^6 cells/ml; Gram -; read-out: MIC
[21] = test system: F. varium KYA 8501; experiment: as above; assay type: cell-based; conditions: Fusobacterium varium, KYA8501; 10^6 cells/ml; Gram -; read-out: MIC
[22] = test system: Streptococcus pyogenes (S-8); experiment: as above; assay type: cell-based; conditions: Streptococcus pyogenes; 10^6 cells/ml; Gram +; read-out: MIC
[23] = test system: Pseudomonas aeruginosa V-1; experiment: as above; assay type: cell-based; conditions: Pseudomonas aeruginosa, V1; 10^6 cells/ml; Gram -; read-out: MIC
[24] = test system: P. aeruginosa IID 1210; experiment: as above; assay type: cell-based, Pseudomonas aeruginosa; conditions: Pseudomonas aeruginosa, IID1210; 10^6 cells/ml; Gram -; read-out: MIC
[25] = test system: Salmonella enteritidis IID 604; experiment: as above; assay type: cell-based; conditions: Salmonella enterica; 10^6 cells/ml; Gram -; read-out: MIC
[26] = test system: Klebsiella pneumoniae KY(GN)6445; experiment: as above; assay type: cell-based; conditions: Klebsiella pneumoniae; 10^6 cells/ml; Gram -; read-out: MIC
[27] = test system: Peptostreptococcus anaerobius KYA 27337; experiment: as above; assay type: cell-based; conditions: Peptostreptococcus anaerobius, KYA27337; 10^6 cells/ml; Gram +; read-out: MIC
[28] = test system: S. pyogenes IID 692; experiment: as above; assay type: cell-based, Streptococcus pyogenes; conditions: Streptococcus pyogenes, IID692; 10^6 cells/ml; Gram +; read-out: MIC
[29] = test system: Morganella morganii IID 602; experiment: as above; assay type: cell-based; conditions: Morganella morganii, IID602; 10^6 cells/ml; Gram -; read-out: MIC
[30] = test system: Serratia marcescens IID 618; experiment: as above; assay type: cell-based; conditions: Serratia marcescens, IID618; 10^6 cells/ml; Gram -; read-out: MIC
[31] = test system: S. aureus Smith; experiment: as above; assay type: cell-based, Staphylococcus aureus; conditions: Staphylococcus aureus; 10^6 cells/ml; Gram +; read-out: MIC
[32] = test system: B. distasonis 8503; experiment: as above; assay type: cell-based; conditions: Parabacteroides distasonis, 8503; 10^6 cells/ml; Gram -; read-out: MIC

Measured: MIC

C[C@H]1CN(c2c(F)cc3c(=O)c(C(=O)O)cn4c3c2OC[C@@H]4C)C[C@H]1N.Cl (mixture of isomers) [Example 31, (3S)-10-(cis-3-Amino-4-methyl-1-pyrrolidinyl)-9-fluoro-2,3-dihydro-3-methyl-7-oxo-7H-pyrido[1,2,3-de][1,4]benzoxazine-6-carboxylic acid hydrochloride]
0.78 µg/mL: [2] | [3]
3.13 µg/mL: [6] | [21] | [24]
0.39 µg/mL: [5] | [10] | [18] | [23] | [27]
0.05 µg/mL: [11] | [19] | [26]
0.1 µg/mL: [8] | [9] | [12] | [13] | [25] | [30]
6.25 µg/mL: [15]
1.56 µg/mL: [7]; 10^6 cells/ml, Gram -, read-out: MIC | [17]
0.025 µg/mL: [20]
0.2 µg/mL: [1] | [4] | [14] | [16] | [22] | [28] | [29] | [31]

C[C@@H]1CN(c2c(F)cc3c(=O)c(C(=O)O)cn(C4CC4)c3c2Cl)C[C@H]1N (relative stereo) [Example 17, 7-(trans-3-Amino-4-methyl-1-pyrrolidinyl)-8-chloro-1-cyclopropyl-6-fluoro-1,4-dihydro-4-oxo-3-quinolinecarboxylic acid]
0.05 µg/mL: [2] | [3] | [4] | [9] | [10] | [14] | [17] | [18] | [29] | [30]
0.78 µg/mL: [21]
0.0063 µg/mL: [11] | [20]
0.2 µg/mL: [7]
0.025 µg/mL: [1] | [8] | [13] | [25] | [31]
0.1 µg/mL: [5] | [6] | [32] | [23] | [27]
0.39 µg/mL: [15] | [24]
0.0125 µg/mL: [12] | [19] | [26]
